B1: P043 CelH: Clostridium thermocellum CelH enzyme (gene Cthe_1472) represented by SEQ ID NO:12 (protein, listed as Clostridium thermocellum)
chain: IKSFQELQGRKLDIVHQFINWSTDFSWVRPYADAVYNNGSILMITWEPWEYNTVDIKNGKADAYITRMAQDMKAYGKEIWLRPLHEANGDWYPWAIGYSSRVNTNETYIAAFRHIVDIFRANGATNVKWVFNVNCDNVGNGTSYLGHYPGDNYVDYTSIDGYNWGTTQSWGSQWQSFDQVFSRAYQALASINKPIIIAEFASAEIGGNKARWITEAYNSIRTSYNKVIAAVWFHENKETDWRINSSPEALAAYREAIGAGSSNPTPTPTWTSTPPSSSPKAVDPFEMVRKMGMGTNLGNTLEAPYEGSWSKSAMEYYFDDFKAAGYKNVRIPVRWDNHTMRTYPYTIDKAFLDRVEQVVDWSLSRGFVTIINSHHDDWIKEDYNGNIERFEKIWEQIAERFKNKSENLLFEIMNEPFGNITDEQIDDMNSRILKIIRKTNPTRIVIIGGGYWNSYNTLVNIKIPDDPYLIGTFHYYDPYEFTHKWRGTWGTQEDMDTVVRVFDFVKSWSDRNNIPVYFGEFAVMAYADRTSRVKWYDFISDAALERGFACSVWDNGVFGSLDNDMAIYNRDTRTFDTEILNALFNPGTYPSYSPKPSPTPRPTKPPVTPAVGEKMLDDFEGVLNWGSYSGEGAKVSTKIVSGKTGNGMEVSYTGTTDGYWGTVYSLPDGDWSKWLKISFDIKSVDGSANEIRFMIAEKSINGVGDGEHWVYSITPDSSWKTIEIPFSSFRRRLDYQPPGQDMSGTLDLDNIDSIHFMYANNKSGKFVVDNIKLIGATSDPTPSIKHGDLNFDNAVNSTDLLMLKRYILKSLELGTSEQEEKFKKAADLNRDNKVDSTDLTILKRYLLKAISEIPI

Key:
[1] = system: Pseudomonas aeruginosa biofilm; assay: Sugar release / solubilization of dehydrated P. aeruginosa biofilm by carbohydrate-active enzymes; details: individual enzymes, dehydrated biofilm in PBS, 37° C., 19 hr / overnight
[2] = cited from earlier work

| Molecule | digestion (solubilization, hydrolysis) of the Pseudomonas aeruginosa biofilm, sugar release [1] | maximal attainable concentration in the CF lung [2] [µg/mL] |
| --- | --- | --- |
| egg yolk lysozyme: egg yolk lysozyme (Sigma L4919) | None of these three enzymes showed significant hydrolysis | – |
| NC[C@H]1O[C@H](O[C@H]2[C@H](O)[C@@H](O[C@H]3O[C@H](CO)[C@@H](O)[C@H](N)[C@H]3O)[C@H](N)C[C@@H]2N)[C@H](N)C[C@@H]1O [tobramycin] | – | ~1000 |
| B1 | positive results | – |
